A short description of data set [1]: Aging promotion testing: sunlight 30 min / fading one hour cycles, 10 days (durability, coloring degree). Format: physicochemical. Conditions: single chromene compound in polymer, 10 days aging, Table 5; for Change in the coloring degree ΔYI: YI(10)-YI(0). The protocol: In order to promote the aging, furthermore, the following testing was conducted. That is, the obtained photochromic polymer was irradiated with sunlight for 30 minutes to develop color, and its color was permitted to fade for one hour in the light of a fluorescent lamp. This cycle was repeated three times a day for a total of 10 days.
The photochromic properties before and after aged were evaluated by evaluating the color densities before and after aged. The initial color density (T0) and the color density (T30) ten days after the aging promotion testing were measured, and the durability was expressed as described below.
Furthermore, the coloring degrees of before developing color were measured before and after aged by using a color difference meter (SM-4) manufactured by Suga Shikenki Co.
7 Coloring degree before being aged=YI(0).
8 Change in the coloring degree (ΔYI)=YI(10)-YI(0)
YI(10): coloring degree after aged
(§1) Photochromic polymers were prepared in the same manner as in Example 42 but using the chromene compounds obtained in Examples 2 to 41, and their maximum absorption wavelengths, color densities, fading rates, changes in the coloring degrees and durabilitys were measured.
(§2) For the purpose of comparison, furthermore, the compounds represented by the following formulas (a), (b), (c), (d), (e) and (f) were measured for their maximum absorption wavelengths, color densities, fading rates, changes in the coloring degrees and durabilitys.
(§3) The procedure was carried out in the same manner as in Example 42 but using 100 parts of AC1 and 133 parts of BC1, the sum of the amounts of AC1 and BC1 being 0.04% by weight. The obtained photochromic polymer was measured for its maximum absorption wavelength, initial color, color density, color-developing sensitivity, fading rate, durability and change in the coloring degree.
(§4) The procedure was carried out in the same manner as in Example 83 but using the known chromene compounds shown in Table 6 instead of the chromene compound used in Example 83. […]
The obtained polymer (2 mm thick) was caused to develop color outdoors, and tones of the developed color were observed by eyes 30 seconds and 15 minutes after it was brought to the outdoors, and uniformity in the step of developing color was evaluated. […] Furthermore, the aging promoting testing was conducted in the same manner as in Example 42 to find a coloring degree (YI(0)) before aged and a change in the coloring degree (ΔY).

Data set [2] is described as follows: Photochromic properties of cast polymer (2 mm thick) under xenon lamp irradiation for 120 seconds. Type of data set: physicochemical. As to conditions: single chromene compound 0.04% by weight in polymer, 20° C., Table 5; for Color density ε(120)-ε(0): 120 seconds. The protocol:
0.04% by weight of the chromene compound obtained in Example 1 was added to 70 parts of 4G, 15 parts of 3G, 10 parts of GMA, 5 parts of HEMA and 1 part of perbutyl ND, and was mixed together to a sufficient degree. The mixture solution was poured into a mold constituted by a glass plate and a gasket of an ethylene/vinyl acetate copolymer, and was cast-polymerized. By using an air furnace, the polymerization was conducted in a manner that the temperature was gradually raised from 30° C. to 90° C. over a period of 18 hours, and was held at 90° C. for 2 hours. After the polymerization, the polymer was taken out from the glass mold.
By using a xenon lamp, L-2480 (300 W) SHL-100, manufactured by Hamamatsu Photonics Co., the obtained polymer (2 mm thick) was irradiated with a beam of an intensity of 365 nm=2.4 mW/cm^2 and 245 nm=24 μW/cm^2 on the surface of the polymer for 120 seconds through an aero-mass filter (manufactured by Corning Co.) at 20° C.±1° C. to develop color and to measure the photochromic properties which were expressed in the following manner.
1 Maximum absorption wavelength (λmax): λmax of the polymer after it has developed color was found by using a spectrophotometer (instantaneous multi-channel photo-detector, MCPD1000) manufactured by Otsuka Denshi Kogyo Co.
2 Initial color ( ε(0)): Absorbency of the polymer in a non-irradiated state at a wavelength same as the maximum absorption wavelength of when it is irradiated with light.
3 Color density (-)=ε(120)-ε(0). ε(120): Absorbency of the polymer at a maximum absorption wavelength after it was irradiated for 120 seconds under the above-mentioned conditions.
4 Color-developing sensitivity (-/min.)=Saturated color density/xenon irradiation time.
Rate of increase in the color density per a unit time until the color density is saturated.
5 Color fading rate [t1/2 (min.)]=time required until the absorbency of the polymer drops down to one-half of [ε(120)-ε(0)] after irradiated for 120 seconds.
as §1, §2, §3, §4

Molecules are shown by their SMILES.

With `CC(C)(C)c1cc2ccccc2c2c1C=CC(c1ccccc1)(c1ccccc1)O2` [Compound 1], in data set [1], the “Change in the coloring degree ΔYI” value is 0.2 and the “Light resistance (durability)” value worked out at 99%. Besides, in data set [2], the “Fading rate t1/2” value was found to be 3.6 min, the “Maximum absorption wavelength λmax” value is on record as 462 nm and the “Color density ε(120)-ε(0)” value is listed as 0.7.

As for `CC(C)(C)c1cc2ccccc2c2c1C=CC1(O2)C2CCCC1CCC2` (stereo not shown) [Compound 2], in data set [1], the “Change in the coloring degree ΔYI” value was 1.5 and the “Light resistance (durability)” value turned out to be 96%. For the same molecule, in data set [2], the “Fading rate t1/2” value was determined as 1.2 min, the “Maximum absorption wavelength λmax” value was 443 nm and the “Color density ε(120)-ε(0)” value amounted to 0.5.

For the molecule `CCC(C)(C)c1cc2ccccc2c2c1C=CC(c1ccc(OC)cc1)(c1ccco1)O2` (stereo not shown) [Compound 3], in data set [1], the “Change in the coloring degree ΔYI” value is on record as 2.0 and the “Light resistance (durability)” value came out at 95%. For the same molecule, in data set [2], the “Fading rate t1/2” value is given as 3.1 min, the “Maximum absorption wavelength λmax” value worked out at 488 nm and the “Color density ε(120)-ε(0)” value is recorded as 1.1.

Take `CCC(C)c1cc2ccccc2c2c1C=CC(c1ccc(OC)cc1)(c1ccc(OC)c(C#N)c1)O2` (stereo not shown) [Compound 4]: in data set [1], the “Change in the coloring degree ΔYI” value is 5.0 and the “Light resistance (durability)” value worked out at 80%. Besides, in data set [2], the “Fading rate t1/2” value worked out at 2.4 min, the “Maximum absorption wavelength λmax” value was determined as 470 nm and the “Color density ε(120)-ε(0)” value worked out at 0.7.

Take `CCC(C)(CC)c1cc2ccccc2c2c1C=CC(c1ccc(OC)c(F)c1)(c1ccc(OC)c(F)c1)O2` [Compound 5]: in data set [1], the “Change in the coloring degree ΔYI” value worked out at 1.5 and the “Light resistance (durability)” value was 99%. For the same molecule, in data set [2], the “Fading rate t1/2” value is reported as 2.2 min, the “Maximum absorption wavelength λmax” value was found to be 465 nm and the “Color density ε(120)-ε(0)” value came out at 0.6.

Regarding `CC(C)(C)c1cc2ccccc2c2c1C=CC(c1ccccc1)(c1cccs1)O2` (stereo not shown) [Compound 6], in data set [1], the “Change in the coloring degree ΔYI” value stood at 1.8 and the “Light resistance (durability)” value stood at 97%. Also, in data set [2], the “Fading rate t1/2” value was determined as 2.8 min, the “Maximum absorption wavelength λmax” value came out at 480 nm and the “Color density ε(120)-ε(0)” value is 0.8.

As to `CC(C)c1cc2ccccc2c2c1C=CC(c1ccccc1)(c1ccc3ccccc3c1)O2` (stereo not shown) [Compound 7], in data set [1], the “Change in the coloring degree ΔYI” value worked out at 1.7 and the “Light resistance (durability)” value was 96%. In data set [2], the “Fading rate t1/2” value came to 3.5 min, the “Maximum absorption wavelength λmax” value stood at 468 nm and the “Color density ε(120)-ε(0)” value was 0.8.

For `COc1ccc2c3c(c(C(C)Cc4ccccc4)cc2c1)C=CC(c1ccccc1)(c1cccn1C)O3` (stereo not shown) [Compound 8], in data set [1], the “Change in the coloring degree ΔYI” value is listed as 2.0 and the “Light resistance (durability)” value was determined as 92%. In addition, in data set [2], the “Fading rate t1/2” value was 2.2 min, the “Maximum absorption wavelength λmax” value was determined as 490 nm and the “Color density ε(120)-ε(0)” value was 0.7.

For the molecule `CC(C)c1cc2cc(O)ccc2c2c1C=CC(c1cccs1)(c1cccs1)O2` [Compound 9], in data set [1], the “Change in the coloring degree ΔYI” value was 2.2 and the “Light resistance (durability)” value turned out to be 94%. In data set [2], the “Fading rate t1/2” value was found to be 2.2 min, the “Maximum absorption wavelength λmax” value is 500 nm and the “Color density ε(120)-ε(0)” value stood at 0.6.

In the case of `CC(=O)Oc1ccc2c3c(c(C(C)C)cc2c1)C=CC(c1ccc(C)cc1)(c1ccc(C)cc1)O3` [Compound 10], in data set [1], the “Change in the coloring degree ΔYI” value is 1.5 and the “Light resistance (durability)” value was found to be 93%. In addition, in data set [2], the “Fading rate t1/2” value is listed as 3.2 min, the “Maximum absorption wavelength λmax” value came to 465 nm and the “Color density ε(120)-ε(0)” value stood at 0.6.

With `CC(C)(C)c1cc2ccccc2c2c1C=CC(c1ccccc1)(c1cc3ccccc3s1)O2` (stereo not shown) [Compound 11], in data set [1], the “Change in the coloring degree ΔYI” value is 1.9 and the “Light resistance (durability)” value is 97%. Moreover, in data set [2], the “Fading rate t1/2” value was found to be 3.4 min, the “Maximum absorption wavelength λmax” value is 485 nm and the “Color density ε(120)-ε(0)” value stood at 1.0.

With `CC(C)c1cc2ccccc2c2c1C=CC(c1ccccc1)(c1ccccc1)O2` [Compound 12], in data set [1], the “Change in the coloring degree ΔYI” value was 1.0 and the “Light resistance (durability)” value stood at 99%. Further, in data set [2], the “Fading rate t1/2” value was determined as 6.8 min, the “Maximum absorption wavelength λmax” value is 476 nm and the “Color density ε(120)-ε(0)” value is given as 0.9.

For the molecule `COc1ccc(C2(c3ccc(OC)cc3)C=Cc3c(C(C)C)cc4ccccc4c3O2)cc1` [Compound 13], in data set [1], the “Change in the coloring degree ΔYI” value was determined as 1.5 and the “Light resistance (durability)” value amounted to 97%. Also, in data set [2], the “Fading rate t1/2” value is listed as 3.3 min, the “Maximum absorption wavelength λmax” value was found to be 500 nm and the “Color density ε(120)-ε(0)” value came out at 0.8.

Take `COc1ccc(C2(c3ccc(OC)c(F)c3)C=Cc3c(C(C)C)cc4ccccc4c3O2)cc1F` [Compound 14]: in data set [1], the “Change in the coloring degree ΔYI” value was 1.3 and the “Light resistance (durability)” value was determined as 99%. For the same molecule, in data set [2], the “Fading rate t1/2” value is on record as 4.3 min, the “Maximum absorption wavelength λmax” value is listed as 492 nm and the “Color density ε(120)-ε(0)” value was 0.8.

As for `COc1ccc(C2(c3ccc(OC(F)(F)F)cc3)C=Cc3c(C(C)C)cc4ccccc4c3O2)cc1` (stereo not shown) [Compound 15], in data set [1], the “Change in the coloring degree ΔYI” value was determined as 1.2 and the “Light resistance (durability)” value is on record as 96%. In addition, in data set [2], the “Fading rate t1/2” value was found to be 4.8 min, the “Maximum absorption wavelength λmax” value is listed as 486 nm and the “Color density ε(120)-ε(0)” value came out at 0.9.

As to `CC(C)c1cc2ccccc2c2c1C=CC(c1ccccc1)(c1ccc(OC(F)(F)F)cc1)O2` (stereo not shown) [Compound 16], in data set [1], the “Change in the coloring degree ΔYI” value turned out to be 1.2 and the “Light resistance (durability)” value is 99%. In data set [2], the “Fading rate t1/2” value was found to be 5.2 min, the “Maximum absorption wavelength λmax” value is reported as 470 nm and the “Color density ε(120)-ε(0)” value was 0.9.

Take `CC(C)(C)c1cc2ccccc2c2c1C=CC(c1ccccc1)(c1ccc(OC(F)(F)F)cc1)O2` (stereo not shown) [Compound 17]: in data set [1], the “Change in the coloring degree ΔYI” value turned out to be 0.7 and the “Light resistance (durability)” value is on record as 98%. Further, in data set [2], the “Fading rate t1/2” value is on record as 3.2 min, the “Maximum absorption wavelength λmax” value came out at 452 nm and the “Color density ε(120)-ε(0)” value was 0.7.

As for `CC(C)(C)c1cc2ccccc2c2c1C=CC1(CC3CCC1C3)O2` (stereo not shown) [Compound 18], in data set [1], the “Change in the coloring degree ΔYI” value turned out to be 1.8 and the “Light resistance (durability)” value worked out at 95%. In addition, in data set [2], the “Fading rate t1/2” value was determined as 1.3 min, the “Maximum absorption wavelength λmax” value stood at 440 nm and the “Color density ε(120)-ε(0)” value came out at 0.4.

Consider `CC(C)c1cc2ccccc2c2c1C=CC1(O2)C2CCC1CC2` (stereo not shown) [Compound 19], for which, in data set [1], the “Change in the coloring degree ΔYI” value came out at 5.5 and the “Light resistance (durability)” value worked out at 92%. Moreover, in data set [2], the “Fading rate t1/2” value is on record as 1.0 min, the “Maximum absorption wavelength λmax” value was 448 nm and the “Color density ε(120)-ε(0)” value is 0.5.

Regarding `CC(C)(C)c1cc2ccccc2c2c1C=CC1(O2)C2(Cl)CCC1(Cl)CC2` (stereo not shown) [Compound 20], in data set [1], the “Change in the coloring degree ΔYI” value worked out at 4.0 and the “Light resistance (durability)” value was determined as 80%. Also, in data set [2], the “Fading rate t1/2” value is reported as 1.3 min, the “Maximum absorption wavelength λmax” value came to 440 nm and the “Color density ε(120)-ε(0)” value is 0.4.

For the origin of these results see patent US6197225A, “Chromene compound” (Tokuyama Corporation, priority 1997, dated 2001).
